SMILES strings stand for the structures.

Data on one compound can be found in publication PMC5424463, “A strategy based on nucleotide specificity leads to a subfamily-selective and cell-active inhibitor of N ^6-methyladenosine demethylase FTO” (Chemical Science, 2014).

The target in the test is T1, JMJD2A (Homo sapiens, UniProt O75164).
T1 construct: pNIC28-Bsa4 JMJD2A (encompassing residues 1-359); inferred from Ni-NTA purification and the pNIC28-Bsa4 vector; made in house; host or cells: E. coli BL21 (DE3) Rosetta T1R
T1 sequence (O75164 1-359): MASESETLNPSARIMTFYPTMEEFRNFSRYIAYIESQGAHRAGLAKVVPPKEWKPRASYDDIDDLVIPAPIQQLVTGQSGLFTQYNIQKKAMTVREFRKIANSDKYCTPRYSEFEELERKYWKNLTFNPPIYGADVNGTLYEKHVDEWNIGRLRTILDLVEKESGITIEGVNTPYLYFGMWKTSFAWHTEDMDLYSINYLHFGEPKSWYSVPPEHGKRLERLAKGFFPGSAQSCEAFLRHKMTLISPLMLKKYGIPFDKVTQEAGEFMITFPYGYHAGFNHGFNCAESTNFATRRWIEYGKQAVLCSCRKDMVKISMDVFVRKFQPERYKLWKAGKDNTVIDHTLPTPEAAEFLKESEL
The test is described as follows: MALDI-based inhibition assay for JMJD2A. As to conditions: ARK(me3)STGGK substrate. The test is classed as biochemical. As for the experimental part: min, before 1:1 quenching with methanol. 1 uL of the diluted assay mixture was then mixed with 1 uL of α-cyano-4-hydroxycinnamic acid (CHCA, the MALDI-TOF-MS matrix, Sigma-Aldrich) and spotted onto the MALDI-TOF-MS plate before analysis. The CHCA matrix consisted of 10 mg/mL CHCA in 50% MeCN/Milli-Q H2O containing 0.1% TFA. The percentage inhibition was estimated based on the relative intensities of the unhydroxylated substrate and the hydroxylated product observed in the mass spectra. For IC50 determination, eight different concentrations of inhibitors were used (0, 1, 3, 10, 30, 100, 300, 1000 µM); the IC50s were then calculated from the variation in percentage hydroxylation at different inhibitor concentrations, using nonlinear regression, with normalized dose-response fit on […]
MALDI-based inhibition assay for JMJD2A
The assay was performed as previously reported, with modifications.[20] A peptide substrate with the sequence ARK(me3)STGGK (GL Biochem (Shanghai) Ltd) was used in this inhibition assay. The assay was performed in triplicate for each inhibitor, in a final reaction volume of 25 µL. […]
IC50s were then calculated from the variation in percentage demethylation at different

`O=C(O)/C=C/C(=O)NNC(=O)c1cnccc1Cc1ccccc1` [Compound 12]: the IC50 – broadly, the midpoint of a concentration-inhibition curve – is over 300 µM.
